{"source": "patent US20250019385A1", "about": "“SPIROCYCLIC ANNULATED 2-AMINO-3-CYANO THIOPHENES AND DERIVATIVES FOR THE TREATMENT OF CANCER” (Boehringer Ingelheim International GmbH, priority 2023, published 2025)", "key": {"Ba/F3 cells KRAS G12V": {"system": "Ba/F3 cells KRAS G12V", "assay": "Ba/F3 proliferation assay (KRAS G12V)", "assay_type": "cell-based", "settings": "Mus musculus, BaF3, 72 h, AlamarBlue viability", "procedure": "(§1) Ba/F3 cells are ordered from DSMZ (ACC300, Lot17) and grown in RPMI-1640 (ATCC 30-2001)+10% FCS+10 ng/mL IL-3 at 37° C. in 5% […] atmosphere. Plasmids containing KRASG12 mutants (i.e. […], G12C, G12V) are obtained from GeneScript. To generate KRASG12-dependent Ba/F3 models, Ba/F3 cells are transduced with retroviruses containing vectors that harbor KRASG12 isoforms. Platinum-E cells (Cell Biolabs) are used for retrovirus packaging. Retrovirus is added to Ba/F3 cells. To ensure infection, 4 μg/mL polybrene is added and cells are spinfected. Infection efficiency is confirmed by measuring GFP-positive cells using a cell analyzer. Cells with an infection efficiency of 10% to 20% are further cultivated and puromycin selection with 1 μg/mL is initiated. As a control, parental Ba/F3 cells are used to show selection status. Selection is considered successful when parental Ba/F3 cells cultures died. To evaluate the transforming potential of KRASG12 mutations, the growth medium is no longer supplemented with IL-3. Ba/F3 cells harboring the empty vector are used as a control. Approximately ten days before conducting the experiments, puromycin is left out.\n(§2) For proliferation assays, Ba/F3 cells are seeded into 384-well plates at 1.5×1 (M cells/60 μL in growth media (RPMI-1640+10% FCS). Compounds (10 mM stock in DMSO) are added at logarithmic dose series using the ECHO acoustic liquid handler system (Beckman Coulter), normalizing for added DMSO and including DMSO controls. All compound treatments are performed in technical duplicates. For the TO time point measurement, untreated cells are analyzed at the time of compound addition. Treated cells are incubated for 72 h at 37° C. with 5% CO2 and cell viability is measured in the PerkinElmer Envision Multimode Reader using AlamarBlue™ (ThermoFisher) viability stain. Viability (stated as percent of control) is defined as relative fluorescence units RFU of each well divided by the RFU of cells in DMSO controls. IC50 values are determined from viability measurements by non-linear regression using a four-parameter model."}, "[1]": {"assay": "Metabolic (microsomal) stability assay, human liver microsomes (HLM)", "assay_type": "in vitro ADME", "settings": "1 μM test compound, predicted clearance as percent of liver blood flow", "procedure": "The metabolic degradation of the test compound is assayed at 37° C. with pooled liver microsomes (mouse (MLM), rat (RLM) or human (HLM)). The final incubation volume of 48 μL per time point contains TRIS buffer (pH 7.5; 0.1 M), magnesium chloride (6.5 mM), microsomal protein (0.5 mg/mL for mouse/rat, 1 mg/mL for human specimens) and the test compound at a final concentration of 1 μM. Following a short preincubation period at 37° C., the reactions are initiated by addition of 12 μL beta-nicotinamide adenine dinucleotide phosphate, reduced form (NADPH, 10 mM) and terminated by transferring an aliquot into solvent after different time points (0, 5, 15, 30, 60 min). Additionally, the NADPH-independent degradation is monitored in incubations without NADPH, terminated at the last time point by addition of acetonitrile. The quenched incubations are pelleted by centrifugation (4,000 rpm, 15 min). An aliquot of the supernatant is assayed by LC-MS/MS to quantify the concentration of parent compound in the individual samples.\nIn vitro intrinsic clearance (CLint,in vitro) is calculated from the time course of the disappearance of the test drug during the microsomal incubation. Each plot is fitted to the first-order elimination rate constant as C(t)=C0*exp(−ke*t), where C(t) and C0 are the concentration of unchanged test drug at incubation time t and that at preincubation and ke is the disappearance rate constant of the unchanged drug. Subsequently, CLint, in vitro (μL min^−1·amount protein) values are converted to predicted CLint,in vivo (mL min^−1·kg^−1) from incubation parameters according to the equation CLint, in vivo=CLint, in vitro×(incubation volume (mL)/amount protein (mg))×(amount protein (mg)/g liver tissue)×(liver weight/body wt.).\nFor better across species comparison the predicted clearance is expressed as percent of the liver blood flow [% QH] (mL min^−1·kg^−1) in the individual species. In general, high stability (corresponding to low % QH) of the compounds across species is desired."}, "[2]": {"assay": "Solubility measurement (DMSO solution precipitation method)", "assay_type": "physicochemical", "settings": "aqueous buffer, kinetic from dmso stock", "procedure": "A 10 mM DMSO stock solution of a test compound is used to determine its aq. solubility. The DMSO solution is diluted with an aq. medium (McIlvaine buffer with pH=4.5 or 6.8) to a final concentration of 250 μM. After 24 h of shaking at ambient temperature a potentially formed precipitate is removed by filtration. The concentration of the test compound in the filtrate is determined by LC-UV methods by calibrating the signal to the signal of a reference solution with complete dissolution of the test compound in acetonitrile/water (1:1) with known concentration."}, "Ba/F3 cells KRAS G12C": {"system": "Ba/F3 cells KRAS G12C", "assay": "Ba/F3 proliferation assay (KRAS G12C)", "assay_type": "cell-based", "settings": "Mus musculus, BaF3, 72 h, AlamarBlue viability", "procedure": "as §1, §2"}, "Ba/F3 cells KRAS G12D": {"system": "Ba/F3 cells KRAS G12D", "assay": "Ba/F3 proliferation assay (KRAS G12D)", "assay_type": "cell-based", "settings": "Mus musculus, BaF3, 72 h, AlamarBlue viability", "procedure": "as §1, §2"}, "[3]": {"molecular_target": "KRAS (G12D)::SOS1 protein-protein interaction (Homo sapiens (Human), UniProt P01116, G12D)", "sequence (P01116 other isoform, or with tags, fused parts or gaps G12D)": "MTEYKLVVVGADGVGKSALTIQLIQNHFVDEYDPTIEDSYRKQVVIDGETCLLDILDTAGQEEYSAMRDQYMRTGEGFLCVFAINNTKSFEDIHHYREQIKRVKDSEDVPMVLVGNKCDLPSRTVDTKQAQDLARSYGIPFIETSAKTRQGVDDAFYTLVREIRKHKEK", "assay": "KRAS::SOS1 AlphaScreen binding assay (KRAS G12D)", "settings": "GDP", "text": "This assay can be used to examine the potency with which compounds according to the invention binding to (mutated) KRAS inhibit the protein-protein interaction between SOS1 and (mutated) KRAS e.g. KRAS G12C, KRAS G12D. […] Low IC50 values in this assay setting are indicative of strong inhibition of protein-protein interaction between SOS1 and KRAS:\nThese assays measure the inhibitory effect of compounds on KRAS mutant protein-protein interactions using the Alpha Screen technology by Perkin Elmer.\nThe following (mutant) enzyme forms of KRAS and interacting proteins are used in these assays at the given concentrations:\nKRAS (G12D) 1-169, N-terminal 6His-tag, C-terminal avi-tag (Xtal BioStructures, Inc.); final assay concentration 10 nM and SOS1 564-1049, N-terminal 229 GST-tag, TEV cleavage site (Viva Biotech Ltd); final assay concentration 5 nM;\nTest compounds dissolved in DMSO are dispensed onto assay plates (Proxiplate 384 PLUS, white, PerkinElmer; 6008289) using an Access Labcyte Workstation with the Labcyte Echo 55x. For the chosen highest assay concentration of 100 μM, 150 nL of compound solution are transferred from a 10 mM DMSO compound stock solution. A series of eleven fivefold dilutions per compound are transferred to the assay plate, compound dilutions are tested in duplicates. DMSO are added as backfill to a total volume of 150 nL.\nThe assays run on a fully automated robotic system in a darkened room below 100 Lux. To 150 nl of compound dilution 10 μl of a mix including KRAS mutant protein, SOS1 (final assay concentrations see above) and GDP nucleotide (Sigma G7127; final assay concentration 10 μM) in assay buffer (1×PBS, 0.1% BSA, 0.05% Tween 20) are added into columns 1-24.\nAfter 30 minutes incubation time 5 μl of Alpha Screen bead mix in assay buffer are added into columns 1-23. Bead mix consists of AlphaLISA Glutathione Acceptor Beads (PerkinElmer, Cat No AL109) and AlphaScreen Streptavidin Donor Beads (PerkinElmer Cat No 6760002) in assay buffer at a final assay concentration of 10 μg/mL each.\nPlates are kept at room temperature in a darkened incubator. After an additional 60 minutes incubation time the signal is measured in a PerkinElmer Envision HTS Multilabel Reader using the AlphaScreen specs from PerkinElmer.\nEach plate contains up to 16 wells of a negative control depending on the dilution procedure (platewise or serial) (DMSO instead of test compound; with KRAS mutant::SOS1 GOP mix and bead mix; column 23) and 16 wells of a positive control (DMSO instead of test compound; with KRAS mutant::SOS1 GOP mix w/o bead mix; column 24).\nAs internal control known inhibitors of KRAS mutant::SOS1 interaction can be measured on each compound plate.\nIC50 values are calculated and analyzed with Boehringer Ingelheim's MEGALAB C50 application using a 4 parametric logistic model.\nTables of example compounds disclosed herein contain IC50 values determined using the above assays (see Table 43)."}, "[4]": {"settings": "McIlvaine buffer pH 4.5, 24 h, read-out: solubility pH 4.5"}, "[5]": {"settings": "McIlvaine buffer pH 6.8, 24 h, read-out: solubility pH 6.8"}}, "note": "Read-outs that look alike come from different tables or passages of the source."}
{"smiles": "CO[C@H]1CCN(C)[C@@H]1[C@H](C)Oc1nc(-c2onc3c2CCC[C@@]32CCCc3sc(N)c(C#N)c32)nc2c1n(C)c(=O)n2[C@H]1CO[C@@H](C)C1", "note": "[I-48]", "values": [{"measurement": "IC50", "setting": "Ba/F3 cells KRAS G12V", "value": 1, "unit": "nM"}, {"measurement": "HLM QH", "setting": "[1]", "value": 63, "unit": "%"}, {"measurement": "solubility at 24 h", "setting": "[2]; [4]", "value": "> 148", "unit": "µg/mL"}, {"measurement": "solubility at 24 h", "setting": "[2]; [5]", "value": 53, "unit": "µg/mL"}, {"measurement": "IC50", "setting": "Ba/F3 cells KRAS G12C", "value": 2, "unit": "nM"}, {"measurement": "IC50", "setting": "Ba/F3 cells KRAS G12D", "value": 3, "unit": "nM"}, {"measurement": "IC50", "setting": "[3]", "value": 2, "unit": "nM"}]}
{"smiles": "CO[C@@H]1C[C@@H]([C@H](C)Oc2nc(-c3onc4c3CCC[C@@]43CCCc4sc(N)c(C#N)c43)nc3c2n(C)c(=O)n3[C@H]2CO[C@@H](C)C2)N(C)C1", "note": "[I-49]", "values": [{"measurement": "HLM QH", "setting": "[1]", "value": 35, "unit": "%"}, {"measurement": "solubility at 24 h", "setting": "[2]; [4]", "value": "> 145", "unit": "µg/mL"}, {"measurement": "solubility at 24 h", "setting": "[2]; [5]", "value": 56, "unit": "µg/mL"}]}
{"smiles": "C[C@@H]1COC[C@H](n2c(=O)n(C)c3c(O[C@@H](C)[C@@H]4CC[C@H](C)N4C)nc(-c4onc5c4CCC[C@@]54CCCc5sc(N)c(C#N)c54)nc32)C1", "note": "[I-53]", "values": [{"measurement": "IC50", "setting": "Ba/F3 cells KRAS G12V", "value": 2, "unit": "nM"}, {"measurement": "HLM QH", "setting": "[1]", "value": 45, "unit": "%"}, {"measurement": "solubility at 24 h", "setting": "[2]; [4]", "value": "> 153", "unit": "µg/mL"}, {"measurement": "solubility at 24 h", "setting": "[2]; [5]", "value": 19, "unit": "µg/mL"}, {"measurement": "IC50", "setting": "Ba/F3 cells KRAS G12C", "value": 6, "unit": "nM"}, {"measurement": "IC50", "setting": "Ba/F3 cells KRAS G12D", "value": 19, "unit": "nM"}, {"measurement": "IC50", "setting": "[3]", "value": 1, "unit": "nM"}]}
